Source: the NIST ThermoML archive (doi:10.1021/je201140q)
Numbers after ± are expanded uncertainties.

How the values were obtained:
[1] = for surface tension liquid-gas: 303.15 K, Maximal bubble pressure; for vapor or sublimation pressure / Normal boiling temperature: Ebulliometric method (Recirculating still)
[2] = refractive index (Na D-line) (dimensionless); conditions: 298.15 K; 101.33 kPa; Liquid; Standard Abbe refractometry
[3] = xn = mol fraction of the nth substance listed; conditions: for mass density: 298.15 K, 101.3 kPa, Liquid, Vibrating tube method; for surface tension liquid-gas: 303.15 K, Maximal bubble pressure

CCO [ethanol]
Conditions	refractive index	surface tension liquid-gas [mN/m]
[1]	–	21.7 ± 0.26
[2]	1.36068 ± 0.00031	–

[1], Liquid
Conditions	vapor or sublimation pressure [kPa]
334.57 K	50 ± 0.25
344.02 K	75 ± 0.41
349.56 K	94 ± 0.56

Conditions	Normal boiling temperature [°C]
[1], Liquid	78.30 ± 0.2

CCO [ethanol] + C1CCOCC1
[3], x1 = 1
Conditions	mass density [kg/m3]	surface tension liquid-gas [mN/m]
–	785.11 ± 0.12	21.7 ± 0.26

C1CCOCC1 [tetrahydropyran]
Conditions	mass density [kg/m3]
[1], 298.15 K, 101.3 kPa, Liquid, Vibrating tube method	879.03 ± 0.09

Conditions	refractive index	surface tension liquid-gas [mN/m]
[1]	–	27.1 ± 0.27
[2]	1.42 ± 0.00031	–

[1], Liquid
Conditions	vapor or sublimation pressure [kPa]
312.59 K	18.01 ± 0.07
319.62 K	24.01 ± 0.07
325.36 K	30.01 ± 0.08
331.7 K	38.01 ± 0.08
336.4 K	45.01 ± 0.09
339.33 K	50 ± 0.3
339.98 K	51.01 ± 0.09
344.26 K	59.01 ± 0.1
347.64 K	66.01 ± 0.11
350.74 K	73.01 ± 0.11
351.53 K	75 ± 0.56
353.61 K	80.01 ± 0.12
356.29 K	87.01 ± 0.13
358.81 K	94.01 ± 0.13
358.85 K	94 ± 0.75
361.55 K	102.11 ± 0.14

Conditions	Normal boiling temperature [°C]
[1], Liquid	88.21 ± 0.2

C1CCOCC1 [tetrahydropyran] + CCO
[3]
Conditions	mass density [kg/m3]	surface tension liquid-gas [mN/m]
x2 = 0	879.03 ± 0.09	27.1 ± 0.27
x2 = 0.03	877.14 ± 0.15	–
x2 = 0.068	–	26.91 ± 0.27
x2 = 0.115	871.86 ± 0.15	–
x2 = 0.122	–	26.76 ± 0.27
x2 = 0.193	866.85 ± 0.16	–
x2 = 0.223	–	26.5 ± 0.27
x2 = 0.299	859.54 ± 0.17	–
x2 = 0.323	–	25.98 ± 0.27
x2 = 0.42	–	25.34 ± 0.27
x2 = 0.426	849.89 ± 0.18	–
x2 = 0.496	844.01 ± 0.2	–
x2 = 0.52	–	24.9 ± 0.27
x2 = 0.599	834.65 ± 0.22	–
x2 = 0.604	–	24.35 ± 0.27
x2 = 0.622	–	24.24 ± 0.27
x2 = 0.657	–	24.07 ± 0.27
x2 = 0.707	–	23.81 ± 0.26
x2 = 0.716	822.74 ± 0.24	–
x2 = 0.722	–	23.64 ± 0.26
x2 = 0.799	813.13 ± 0.27	–
x2 = 0.821	–	23.01 ± 0.26
x2 = 0.91	798.6 ± 0.29	–
x2 = 0.918	–	22.42 ± 0.26
x2 = 0.959	791.41 ± 0.32	–
x2 = 0.963	–	22 ± 0.26
